Columns and labels:
Jurkat cells = experiment: Long-term growth of Jurkat cells under continuous treatment; type: cell-based, human; conditions: 300 nM continuous
Method: (§1) The anti-proliferative effects of a PROTAC and a kinase inhibitor were compared in leukemia cell lines. In the long-term treatment experiment shown in FIG. 11A, Jurkat cells (0.1 million cells) were continuously treated with vehicle control (0.1% DMSO), 300 nM BI-1347 or 300 nM IA7886 for 53 days (each condition in biological triplicates). Every 7-8 days, live cells were counted using BioRAD TC20 Automated Cell Counter with trypan blue staining: 0.1 million live cells were passaged to a new T25 flask to propagate under the same treatment conditions. The survival fraction was calculated by dividing the accumulated number of drug-treated cells with the accumulated number of vehicle-treated cells. […] This sustained inhibition property of PROTAC was also observed in MV4-11, a leukemia cell line highly sensitive to CDK8/19 kinase inhibitors.

MV4-11 cells = experiment: Long-term growth of MV4-11 cells under continuous treatment; type: cell-based, human; conditions: MV4-11, 300 nM continuous
Method: as §1

RPMI 8226 cells = experiment: Concentration dependence of RPMI 8226 growth inhibition; type: cell-based; conditions: Homo sapiens, 96 h; RPMI 8226, 4-day growth inhibition
[1] = Serum drug concentrations in CD-1 mice (LCMSMS); type: in vivo; conditions: female CD-1 mice, i.p. 15 mg/kg, 15 min and 1 hr
Method: For preliminary evaluation of the bioavailability of the PROTACs, IA7882 and IA7886 were administered to female CD-1 mice via intraperitoneal (i.p.) injection at the dose of 15 mg/kg. Drug concentrations were measured by LCMSMS analysis of serum samples collected at 15 min and 1 hr time point.

CDK8 [2] = biological target: T1, CDK8 (Homo sapiens, UniProt P49336); experiment: CDK8 degradation in RPMI 8226 cells (Western blot); type: cell-based; parameters: host or cells: RPMI 8226; conditions: RPMI 8226, concentrations used in FIG. 14A
Target sequence in this assay (P49336 whole entry): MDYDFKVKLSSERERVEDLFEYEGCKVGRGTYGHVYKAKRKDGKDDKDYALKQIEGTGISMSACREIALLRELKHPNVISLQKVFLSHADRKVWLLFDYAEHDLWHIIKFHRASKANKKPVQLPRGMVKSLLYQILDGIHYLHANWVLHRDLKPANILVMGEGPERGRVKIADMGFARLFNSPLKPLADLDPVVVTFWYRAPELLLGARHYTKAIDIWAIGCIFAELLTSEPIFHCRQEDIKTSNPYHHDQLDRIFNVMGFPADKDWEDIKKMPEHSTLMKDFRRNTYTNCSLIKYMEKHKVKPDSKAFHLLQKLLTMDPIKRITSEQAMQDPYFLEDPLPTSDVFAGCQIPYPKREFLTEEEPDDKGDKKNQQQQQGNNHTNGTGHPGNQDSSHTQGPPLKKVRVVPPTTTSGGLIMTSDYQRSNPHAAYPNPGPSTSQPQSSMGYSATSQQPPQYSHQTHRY
Target sequence in this assay (P24863 whole entry partner): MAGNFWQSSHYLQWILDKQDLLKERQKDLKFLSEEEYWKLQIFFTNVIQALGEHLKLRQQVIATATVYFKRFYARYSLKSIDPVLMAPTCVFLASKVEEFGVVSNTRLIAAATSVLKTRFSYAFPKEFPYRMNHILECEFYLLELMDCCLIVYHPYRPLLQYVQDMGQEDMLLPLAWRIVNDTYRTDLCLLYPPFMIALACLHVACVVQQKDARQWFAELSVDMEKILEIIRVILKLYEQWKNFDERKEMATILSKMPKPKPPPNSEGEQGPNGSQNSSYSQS

CDK8 [3] = biological target: T2, CDK8 (Mus musculus, UniProt Q8R3L8); experiment: CDK8 degradation in murine CT26 colon carcinoma cells; type: cell-based; parameters: endogenous in cells; host or cells: CT26
T2 sequence (Q8R3L8 1-464): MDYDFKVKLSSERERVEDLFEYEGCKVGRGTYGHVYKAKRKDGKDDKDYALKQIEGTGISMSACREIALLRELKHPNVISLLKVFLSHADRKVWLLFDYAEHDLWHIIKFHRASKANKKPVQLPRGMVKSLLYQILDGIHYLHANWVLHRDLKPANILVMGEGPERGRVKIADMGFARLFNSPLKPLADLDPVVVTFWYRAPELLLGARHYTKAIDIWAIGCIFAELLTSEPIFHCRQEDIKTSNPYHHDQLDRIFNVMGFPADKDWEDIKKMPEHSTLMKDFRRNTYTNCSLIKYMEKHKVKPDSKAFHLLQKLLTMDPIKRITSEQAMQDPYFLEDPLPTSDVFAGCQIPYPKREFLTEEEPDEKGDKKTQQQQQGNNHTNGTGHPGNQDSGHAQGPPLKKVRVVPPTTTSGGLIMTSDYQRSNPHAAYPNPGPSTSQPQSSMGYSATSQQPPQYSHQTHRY
T2 sequence (Q62447 1-283 partner): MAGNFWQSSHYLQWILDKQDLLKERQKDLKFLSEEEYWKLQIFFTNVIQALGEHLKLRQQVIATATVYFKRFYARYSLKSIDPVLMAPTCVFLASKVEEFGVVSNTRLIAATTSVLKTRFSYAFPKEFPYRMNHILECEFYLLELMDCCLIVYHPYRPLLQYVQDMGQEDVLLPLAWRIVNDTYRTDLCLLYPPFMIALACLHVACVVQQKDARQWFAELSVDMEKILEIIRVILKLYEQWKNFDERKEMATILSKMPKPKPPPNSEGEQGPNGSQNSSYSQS
From the text: Both the extent and the kinetics of CDK8 degradation were similar between two cell lines, with the degradation reaching maximum at about 8 hrs of PROTAC treatment.

CDK8 [4] = biological target: T1, CDK8; experiment: CDK8 degradation in Loucy T-cell leukemia cells lacking Cyclin C; type: cell-based; parameters: endogenous in cells; host or cells: Loucy; conditions: Loucy cells (lacking CCNC), 24 hr treatment
From the text: (§2) This cell line, however, is unique in lacking Cyclin C (CCNC), the binding partner of CDK8/19. To test if the absence of CDK8-bound CCNC was responsible for the loss of IA7843 CDK8-degrading activity, we have tested the effect of IA7843 on a derivative of HEK-293cells with CRISPR-mediated knockout of CCNC.
Target sequence in this assay (P49336 whole entry): as the sequence (P49336 whole entry) above

CDK19 [5] = biological target: T3, CDK19 (Homo sapiens, UniProt Q9BWU1); experiment: CDK19 degradation in Loucy T-cell leukemia cells lacking Cyclin C; type: cell-based; parameters: endogenous in cells; host or cells: Loucy; conditions: Loucy cells (lacking CCNC), 24 hr treatment
From the text: as §2
Target sequence in this assay (Q9BWU1 whole entry): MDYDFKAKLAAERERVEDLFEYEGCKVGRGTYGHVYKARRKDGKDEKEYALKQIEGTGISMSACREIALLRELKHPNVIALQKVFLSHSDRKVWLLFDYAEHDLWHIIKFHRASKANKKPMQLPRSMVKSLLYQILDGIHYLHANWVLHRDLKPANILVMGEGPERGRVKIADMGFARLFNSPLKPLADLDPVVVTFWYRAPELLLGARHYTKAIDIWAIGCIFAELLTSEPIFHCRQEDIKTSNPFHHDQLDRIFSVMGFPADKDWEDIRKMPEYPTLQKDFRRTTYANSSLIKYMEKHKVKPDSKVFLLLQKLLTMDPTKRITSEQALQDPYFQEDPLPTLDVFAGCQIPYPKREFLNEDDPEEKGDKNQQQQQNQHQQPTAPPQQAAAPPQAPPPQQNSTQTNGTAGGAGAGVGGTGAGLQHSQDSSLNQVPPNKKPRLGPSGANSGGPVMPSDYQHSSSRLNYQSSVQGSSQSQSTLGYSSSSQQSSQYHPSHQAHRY

CDK19 [6] = biological target: T3, CDK19; experiment: CDK19 degradation in HEK-293 cells (Western blot); type: cell-based; parameters: PROTACs on CDK8 and CDK19 degradation in HEK-293cells; endogenous in cells; host or cells: HEK-293; conditions: concentration degrading CDK19 to half of level in untreated cells
From the text: Furthermore, the degradation of both CDK8 and CDK19 by the PROTACs is also seen to decrease the levels of their binding partner cyclin C (CCNC) (FIG. 2B, D, E), which is known to be protected from proteolytic degradation by its interaction with CDK8 (Barette et al., 2001).
FIGS. 2F and 2G show the effects of different concentrations of potent Senexin C- and BI-1347-based PROTACs on CDK8 and CDK19 degradation in HEK-293cells. Based on these assays, we calculated DC50 values that correspond to PROTAC concentrations inducing degradation of CDK8 and CDK19 to the half of protein level in untreated cells. The corresponding CDK8 DC50 values were 46 nM for IA7843, 6.6 nM for IA7882 and 2.8 nM for IA7886, and CDK19 DC50 values were 1 μM for IA7843, 25 nM for IA7882 and 10 nM for IA7886.
Target sequence in this assay (Q9BWU1 whole entry): as above
Target sequence in this assay (P24863 whole entry partner): as the sequence (P24863 whole entry partner) above

CDK19 [7] = biological target: T3, CDK19; experiment: CDK19 degradation in HEK-293 cells with CRISPR knockout of CCNC; type: cell-based; parameters: a derivative of HEK-293cells with CRISPR-mediated knockout of CCNC; endogenous in cells; host or cells: HEK-293 with CRISPR knockout of CCNC; conditions: HEK-293 CCNC-knockout cells, 24 hr treatment
From the text: as §2
Target sequence in this assay (Q9BWU1 whole entry): as the sequence (Q9BWU1 whole entry) above

With `O=C(CCCNc1cccc2c1C(=O)N(C1CCC(=O)NC1=O)C2=O)NCCCCCCCCCCC(=O)N1CCN(C(=O)Cn2cc(-c3ccc(-c4cncc5ccccc45)cc3)cn2)CC1` (stereo not drawn) [IA7886, 4-[[2-(2,6-dioxo-3-piperidyl)-1,3-dioxo-isoindolin-4-yl]amino]-N-[11-[4-[2-[4-[4-(4-isoquinolyl)phenyl]pyrazol-1-yl]acetyl]piperazin-1-yl]-11-oxo-undecyl]butanamide] the “growth inhibition, first two passages (14 days)” value (Jurkat cells) was “had a stronger growth inhibition effect than the PROTAC IA7886”, the “growth rates in later passages” value (Jurkat cells; up to 53 days) was “growth rates of IA-7886 treated cells were decreasing” and the “growth inhibition over 60 days” value (MV4-11 cells) was “much more stable and continued for the entire 60 days”. The IC50 (RPMI 8226 cells) was 24 nM, the serum drug concentrations [1] was “readily measurable and were higher for IA7882 than for IA7886” and the “CDK8 degradation (in words)” value (CDK8 [2]) was “efficiently degraded CDK8 in RPMI 8226 cells”. For the same molecule, the “CDK8 degradation (in words)” value (CDK8 [3]) was “induce CDK8 degradation in both cell lines”, the “time at which CDK8 degradation reaches maximum” value (CDK8 [3]; 100 nM) was “about 8 hrs” and the “CDK8 degradation (in words)” value (CDK8 [4]) was “efficiently degraded CDK8 and CDK19”. The “CDK19 degradation (in words)” value (CDK19 [5]) was “efficiently degraded CDK8 and CDK19”, the DC50 (CDK19 [6]) was 10 nM and the “CDK19 degradation (in words)” value (CDK19 [7]) was “efficiently degraded CDK8 and CDK19”.
